Data from BigSolDB 2.1.

CC[C@H]1OC(=O)[C@H](C)[C@@H](O[C@H]2C[C@@](C)(OC)[C@@H](O)[C@H](C)O2)[C@H](C)[C@@H](O[C@@H]2O[C@H](C)C[C@H](N(C)C)[C@H]2O)[C@](C)(O)C[C@@H](C)C(=O)[C@H](C)[C@@H](O)[C@]1(C)O.N#CS.O.O
solubility (mole fraction)
Conditions	288.15 K	293.15 K	298.15 K	303.15 K	308.15 K	313.15 K	318.15 K
in ethanol	0.00426	0.00475	0.00525	0.00586	0.00679	0.00767	0.00856
in isopropanol	0.00104	0.00121	0.00136	0.00157	0.00175	0.002	0.00227
in methanol	0.0119	0.0128	0.0144	0.0158	0.0173	0.0189	0.0203
in n-propanol	0.00409	0.00437	0.00488	0.00567	0.00643	0.00725	0.00841
